# Values quoted from earlier work in US20010008638A1, “N[…] LEAST ONE […] AT LEAST ONE ANTI-ESTROGEN COMPOUND IN A TIME-RELEASE DOSAGE FORM” (priority 1999, published 2001).
# Conditions: fold more potent than testosterone
smiles,measurement,value
"C[C@]12CCC(=O)C[C@@H]1CC[C@@H]1[C@@H]2CC[C@]2(C)[C@@H](O)CC[C@@H]12 [DHT, dihydrotestosterone]",potency relative to testosterone,~10 times
